30 compounds from patent publication US20130196986A1 (priority 2010, published 2013) can be followed below.

The assay addresses T1, P2X7 receptor (Homo sapiens, UniProt Q99572).
T1 construct: stably expressing the full length P2X7 receptor; expressed in transfected cells
T1 sequence (Q99572 1-595): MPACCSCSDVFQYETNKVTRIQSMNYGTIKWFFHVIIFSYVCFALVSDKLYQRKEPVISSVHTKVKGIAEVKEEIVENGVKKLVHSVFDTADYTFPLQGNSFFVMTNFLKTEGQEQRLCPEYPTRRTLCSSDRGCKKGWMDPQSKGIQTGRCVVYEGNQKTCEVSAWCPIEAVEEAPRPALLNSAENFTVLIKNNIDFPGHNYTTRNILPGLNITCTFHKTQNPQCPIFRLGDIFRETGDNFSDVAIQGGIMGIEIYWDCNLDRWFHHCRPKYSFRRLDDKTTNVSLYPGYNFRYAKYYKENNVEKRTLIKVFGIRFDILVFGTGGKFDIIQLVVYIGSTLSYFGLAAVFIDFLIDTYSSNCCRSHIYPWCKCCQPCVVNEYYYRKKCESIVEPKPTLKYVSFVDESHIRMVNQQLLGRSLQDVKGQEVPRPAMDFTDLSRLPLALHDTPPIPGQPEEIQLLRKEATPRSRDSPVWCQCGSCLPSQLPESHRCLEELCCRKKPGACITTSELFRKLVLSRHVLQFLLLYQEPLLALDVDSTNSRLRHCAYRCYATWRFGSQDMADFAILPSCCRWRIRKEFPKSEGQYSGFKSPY
Kind of assay: Ca++ flux assay (FLIPR) in P2X7-HEK-293 cell line stably expressing the full length P2X7 receptor, Bz-ATP activation. The conditions noted are these: P2X7-HEK-293 cells; agonist Bz-ATP; fluorescence as total area over 90 seconds; read-out: P2X7 Ca Flux hu IC50. The assay is classed as cell-based. The protocol:
The ability of Triazolopyrazinone Compounds to inhibit P2X7 function can be determined in Ca^++ flux assay using a P2X7-HEK-293 cell line stably expressing the full length P2X7 receptor. The assay protocol is as described in Cheewatrakoolpong et al., Biochem. Biophys. Res. Commun. 332:17-27 (2005) with minor modification, and is as summarized hereinafter. Briefly, cells were plated in poly-D-lysine-coated wells, and incubated at 37° C. for 24 hours. Cells were then incubated for 1 hour with a loading buffer which contains a dye sensitive to changes in Ca^++ concentration (lx Calcium Plus no wash dye from Molecular Devices, Sunnyvale, Calif.). The test compounds were added to the wells in the dye loading step. Plates containing the wells were transferred to a Fluorometric Imaging Plate Reader (Molecular Devices, Sunnyvale, Calif.). The cells were activated by the addition of the P2X7 receptor agonist 2′(3) —O-(4-benzoylbenzoyl)adenosine 5′-triphosphate (Bz-ATP from Sigma-Aldrich, St. Louis, Mo.), and the fluorescence was monitored for 90 seconds. The fluorescent signal was determined as the total area over the 90 second run time. Using this protocol, representative Triazolopyrazinone Compounds, compounds 1471 were tested. Tables 3 to 6 show the concentration at which 50% of the maximum response in the Ca^++ was inhibited (IC50) for each of the test compounds.

For orientation: IC50 means the concentration that inhibits the measured activity by half.

With `Cc1c(Cl)cccc1-n1ccn2c(SCc3ccccc3Oc3ccccc3)nnc2c1=O` [Compound 30, 7-(3-chloro-2-methylphenyl)-3-(2-phenoxybenzylthio)-[1,2,4]triazolo[4,3-a]pyrazin-8(7H)-one], the IC50 came out at 67 nM.
The same measure for `Cc1c(Cl)cccc1-n1ccn2c(SCc3ccccc3N3CCN(C(=O)OC(C)(C)C)CC3)nnc2c1=O` [Compound 31, tert-butyl 4-(2-((7-(3-chloro-2-methylphenyl)-8-oxo-7,8-dihydro-[1,2,4]triazolo[4,3-a]pyrazin-3-ylthio)methyl)phenyl)piperazine-1-carboxylate]: 1170 nM.
With `Cc1c(Cl)cccc1-n1ccn2c(SCc3ccccc3N3CCOCC3)nnc2c1=O` [Compound 32, 7-(3-chloro-2-methylphenyl)-3-(2-morpholinobenzylthio)-[1,2,4]triazolo[4,3-a]pyrazin-8(7H)-one] the figure was 553 nM; with `[2H]c1c([2H])c([2H])c(CSc2nnc3c(=O)n(-c4cccc(Cl)c4C)ccn23)c([2H])c1[2H]` [Compound 33], 85.7 nM; with `[2H]c1c([2H])c([2H])c(C([2H])([2H])Sc2nnc3c(=O)n(-c4cccc(Cl)c4C)ccn23)c([2H])c1[2H]` [Compound 34], 148 nM.
With `CCc1ccccc1CSc1nnc2c(=O)n(-c3cccc(Cl)c3C)ccn12` [Compound 35, 7-(3-chloro-2-methylphenyl)-3-(2-ethylbenzylthio)-[1,2,4]triazolo[4,3-a]pyrazin-8(7H)-one] the figure was 213 nM; with `Cc1c(Cl)cccc1-n1ccn2c(SCc3ccccc3-c3cccnc3)nnc2c1=O` [Compound 36, 7-(3-chloro-2-methylphenyl)-3-(2-(pyridin-3-yl)benzytthio)-[1,2,4]triazolo[4,3-a]pyrazin-8(7H)-one], 147 nM.
Turning to `Cc1c(Cl)cccc1-n1ccn2c(SCc3ccccc3-c3ccco3)nnc2c1=O` [Compound 37, 7-(3-chloro-2-methylphenyl)-3-(2-(furan-2-yl)benzylthio)-[1,2,4]triazolo[4,3-a]pyrazin-8(7H)-one], the 50% inhibitory concentration (IC50) stood at 97.4 nM.
The same measure for `Cc1c(Cl)cccc1-n1ccn2c(SCc3ccccc3Cn3cncn3)nnc2c1=O` [Compound 38, 3-(2-((1H-1,2,4-triazol-1-yl)methyl)benzylthio)-7-(3-chloro-2-methylphenyl)-[1,2,4]triazolo[4,3-a]pyrazin-8(7H)-one]: 1440 nM; for `Cc1c(Cl)cccc1-n1ccn2c(SCc3ccccc3CN3CCOCC3)nnc2c1=O` [Compound 39, 7-(3-chloro-2-methylphenyl)-3-(2-(rnorpholinornethyl)benzylthio)-[1,2,4]triazolo[4,3-a]pyrazin-8(7H)-one]: 636 nM.
Take `Cc1c(Cl)cccc1-n1ccn2c(SCc3ccccc3-c3cccs3)nnc2c1=O` [Compound 40, 7-(3-chloro-2-methylphenyl)-3-(2-(thiophen-2-yl)benzylthio)-[1,2,4]triazolo[4,3-a]pyrazin-8(7H)-one]: the IC50 was found to be 45.8 nM.
With `Cc1c(Cl)cccc1-n1ccn2c(SCc3ccccc3C(C)C)nnc2c1=O` [Compound 41, 7-(3-chloro-2-methylphenyl)-3-(2-isopropylbenzylthio)-[1,2,4]triazolo[4,3-a]pyrazin-8(7H)-one] the figure was 372 nM.
Turning to `Cc1c(Cl)cccc1-n1ccn2c(SCc3ccccc3COc3ccccc3)nnc2c1=O` [Compound 42, 7-(3-chloro-2-methylphenyl)-3-(2-(phenoxymethyl)benzylthio)-[1,2,4]triazolo[4,3-a]pyrazin-8(7H)-one], the IC50 was 170 nM.
The same measure for `Cc1c(Cl)cccc1-n1ccn2c(SCc3ccccc3CS(=O)(=O)c3ccccc3)nnc2c1=O` [Compound 43, 7-(3-chloro-2-methylphenyl)-3-(2-(phenylsulfonylmethyl)benzylthio)-[1,2,4]triazolo[4,3-a]pyrazin-8(7H)-one]: 233 nM.
In the case of `Cc1c(Cl)cccc1-n1ccn2c(SCc3ccccc3CCc3ccccc3)nnc2c1=O` [Compound 44], the IC50 came to 553 nM.
For the compound `Cc1c(Cl)cccc1-n1ccn2c(SCc3ccccc3Cc3ccccc3)nnc2c1=O` [Compound 45, 3-(2-benzylbenzylthio)-7-(3-chloro-2-methylphenyl)-[1,2,4]triazolo[4,3-a]pyrazin-8(7H)-one], the half-maximal inhibitory concentration (IC50) is 176 nM.
With `Cc1c(Cl)cccc1-n1ccn2c(SCc3cccc(-c4ccccc4)c3)nnc2c1=O` [Compound 46, 3-(biphenyl-3-ylmethylthio)-7-(3-chloro-2-methylphenyl)-[1,2,4]triazolo[4,3-a]pyrazin-8(7H)-one] the figure was 3500 nM.
The same measure for `Cc1ccccc1CSc1nnc2c(=O)n(-c3cccc(C(F)(F)F)c3Cl)ccn12` [Compound 47, 7-(2-chloro-3-(trifluorornethyl)phenyl)-3-(2-methylbenzylthio)-[1,2,4]triazolo[4,3-a]pyrazin-8(7H)-one]: 41.8 nM; for `O=c1c2nnc(SCc3ccccc3-c3ccccc3)n2ccn1-c1cccc(C(F)(F)F)c1Cl` [Compound 48, 3-(biphenyl-2-ylmethylthio)-7-(2-chloro-3-(trifluoromethyl)phenyl)-[1,2,4]triazolo[4,3-a]pyrazin-8(7H)-one]: 17.3 nM.
With `Cc1c(-n2ccn3c(SCc4ccccc4-c4ccccc4)nnc3c2=O)cccc1C(F)(F)F` [Compound 49, 3-(biphenyl-2-ylmethylthio)-7-(2-methyl-3-(trifluoromethyl)phenyl)-[1,2,4]triazolo[4,3-a]pyrazin-8(7H)-one] the figure was 15.9 nM; with `Cc1c(Cl)cccc1-n1ccn2c(SC(=O)N(C)c3ccccc3)nnc2c1=O` [Compound 50, S-7-(3-chloro-2-methylphenyl)-8-oxo-7,8-dihydro-[1,2,4]triazolo[4,3-a]pyrazin-3-yl methyl(phenyl)carbamothioate], 6530 nM; with `Cc1c(-n2ccn3c(SCc4ccccc4OC(F)(F)F)nnc3c2=O)cccc1C(F)(F)F` [Compound 51, 7-(2-methyl-3-(trifluorornethyl)phenyl)-3-(2-(trifluoromethoxy)benzylthio)-[1,2,4]triazolo[4,3-a]pyrazin-8(7H)-one], 44.2 nM.
As to `Cc1c(Cl)cccc1-n1ccn2c(SCc3ccccc3SC(F)(F)F)nnc2c1=O` [Compound 52, 7-(3-chloro-2-methylphenyl)-3-(2-(trifluorornethylthio)benzylthio)-[1,2,4]triazolo[4,3-a]pyrazin-8(7H)-one], the IC50 amounted to 316 nM.
As for `Cc1c(Cl)cccc1-n1ccn2c(SCc3ccccc3[N+](=O)[O-])nnc2c1=O` [Compound 53, 7-(3-chloro-2-methylphenyl)-3-(2-nitrobenzylthio)-[1,2,4]triazolo[4,3-a]pyrazin-8(7H)-one], the IC50 worked out at 994 nM.
As for `Cc1c(Cl)cccc1-n1ccn2c(SCc3ccccc3-c3ccccc3)nnc2c1=O` [Compound 54, 3-(biphenyl-2-ylmethylthio)-7-(3-chloro-2-methylphenyl)-[1,2,4]triazolo[4,3-a]pyrazin-8(7H)-one], the IC50 was found to be 44 nM.
With `Cc1cccc(CSc2nnc3c(=O)n(-c4cccc(Cl)c4C)ccn23)c1F` [Compound 55, 7-(3-chloro-2-methylphenyl)-3-(2-fluoro-3-methylbenzylthio)-[1,2,4]triazolo[4,3-a]pyrazin-8(7H)-one] the figure was 432 nM; with `Cc1c(-n2ccn3c(SCc4ccccc4F)nnc3c2=O)cccc1C(F)(F)F` [Compound 56, 3-(2-fluorobenzylthio)-7-(2-methyl-3-(trifluoromethyl)phenyl)-[1,2,4]triazolo[4,3-a]pyrazin-8(7H)-one], 167 nM.
The same measure for `Cc1ccccc1CSc1nnc2c(=O)n(-c3cccc(C(F)(F)F)c3C)ccn12` [Compound 57, 7-(2-methyl-3-(trifluoromethyl)phenyl)-3-(2-methylbenzylthio)-[1,2,4]triazolo[4,3-a]pyrazin-8(7H)-one]: 86.4 nM; for `O=c1c2nnc(SCc3cc(Cl)cc(Cl)c3)n2ccn1-c1cccc(C(F)(F)F)c1F` [Compound 58, 3-(3,5-dichlorobenzylthio)-7-(2-fluoro-3-(trifluoromethyl)phenyl)-[1,2,4]triazolo[4,3-a]pyrazin-8(7H)-one]: 427 nM; for `O=c1c2nnc(SCc3ccccc3)n2ccn1-c1cccc(C(F)(F)F)c1F` [Compound 59, 3-(benzylthio)-7-(2-fluoro-3-(trifluoromethyl)phenyl)-[1,2,4]triazolo[4,3-a]pyrazin-8(7H)-one]: 457 nM.
